4 compounds from ChEMBL document CHEMBL4819052, “Structure-Based Approaches to Improving Selectivity through Utilizing Explicit Water Molecules: Discovery of Selective β-Secretase (BACE1) Inhibitors over BACE2” (J Med Chem, 2021) can be followed below.

SMILES strings stand for the structures.

A short description of the series: Dissociation constant, pKa of compound by capillary electrophoresis. The class given is physicochemical.
For `CC#C[C@]1(c2cc(NC(=O)c3cnc(OCF)cn3)ccc2F)N=C(N)OCC12CC(F)(F)C2`, the pKa (usually the pH at which an ionisable group is half protonated) worked out at 7.5.
`CC#C[C@]1(c2cc(NC(=O)c3cnc(OCF)cn3)ccc2F)N=C(N)OC[C@@H]1F`: the pKa stood at 6.5.
Compound `CC#C[C@@]1(c2cc(NC(=O)c3cnc(OCF)cn3)ccc2F)CCOC(N)=N1` showed a pKa of 8.4.
Turning to `CC#C[C@@]1(c2cc(NC(=O)c3ccc(C#N)cn3)ccc2F)CCOC(N)=N1`, the pKa was found to be 8.3.
